test: recombinant UMI read abundance after kanamycin selection (control-corrected) (log10(CPM+1)); higher = more efficient recombination; extreme values may be limits of the assay; sequences stand for … in AGTGCAGAGAAAATCGGCCAGTTTTCTCTGCCTGCAGTCCGCATGCCGTGGGACCCCTTGGGTTCTAACCTGTTGCCTAGATTTATGCAGCGGACTGCCTTTCTCCCAAAGTGATAAACCGG…AGGTTGGTTTCACT; site = the 11-nt donor
In short: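 In a pooled Escherichia coli screen for the IS621 bridge recombinase, donor and donor-binding-loop pairs were each placed with a 12-nt UMI on a plasmid bearing a promoterless kanamycin gene. This library was co-electroporated with a target plasmid encoding a fixed target and T7-inducible recombinase, and cells were plated either on IPTG (0.07 mM) plus kanamycin or without selection, in two replicates each. Recombinant UMIs were PCR-amplified across the donor–target junction and sequenced, and counts were converted to CPM, averaged over replicates, scaled by control-derived factors and reported as log10(CPM+1).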
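Also: IS621 bridge recombinase in Escherichia coli cells against a fixed T5 target plasmid.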

| Sequence | recombinant UMI read abundance (log10) |
| --- | --- |
| TGACCGGCATGGACCGGTTTTCCCGGTAATCCGTATTTGGC (site TGTCCGGCTGC) | 0 |
| TGACGGTCATGGACCGGTTTTCCCGGTAATCCGTATTTGAA (site TGACGGTCTTT) | 1.52 |
| TGACTATCATGGACCGGTTTTCCCGGTAATCCGTATTTGCC (site TGACTATCTGG) | 1.54 |
| TGAGCTACATGGACCGGTTTTCCCGGTAATCCGTATTTGCC (site TGAGCTACTGG) | 0.451 |
| TGAGCTTCATGGACCGGTTTTCCCGGTAATCCGTATTTGTA (site TGAGCTTCTTA) | 1.92 |
| TGAGGCACATGGACCGGTTTTCCCGGTAATCCGTATTTGGT (site TGAGGCACTAC) | 0.463 |
| TGAGGTCCATGGACCGGTTTTCCCGGTAATCCGTATTTGAA (site TGAGGTCCTTT) | 0.00722 |
| TGAGTCACATGGACCGGTTTTCCCGGTAATCCGTATTTGAC (site TGAGTCACTGT) | 2.61 |
| TGATAGACATGGACCGGTTTTCCCGGTAATCCGTATTTGCC (site AGATAGACTGG) | 1.96 |
| TGATAGACATGGACCGGTTTTCCCGGTAATCCGTATTTGCC (site CGATAGACTGG) | 2.02 |
| TGATAGACATGGACCGGTTTTCCCGGTAATCCGTATTTGCC (site GGATAGACTGG) | 0 |
| TGATAGACATGGACCGGTTTTCCCGGTAATCCGTATTTGCC (site TGATAGACTGG) | 2.54 |
| TGATCCTCATGGACCGGTTTTCCCGGTAATCCGTATTTGCT (site CGATCATCTAG) | 0.523 |
| TGATCCTCATGGACCGGTTTTCCCGGTAATCCGTATTTGCT (site TGATCCTCTAG) | 1.81 |
| TGATGAGCATGGACCGGTTTTCCCGGTAATCCGTATTTGGG (site TAATGAGCTCC) | 0.0122 |
| TGATGAGCATGGACCGGTTTTCCCGGTAATCCGTATTTGGG (site TCATGAGCTCC) | 0.0102 |
| TGATGAGCATGGACCGGTTTTCCCGGTAATCCGTATTTGGG (site TGATGAGCTCC) | 0.403 |
| TGATGAGCATGGACCGGTTTTCCCGGTAATCCGTATTTGGG (site TTATGAGCTCC) | 0.0217 |
| TGATTAGCATGGACCGGTTTTCCCGGTAATCCGTATTTGGG (site TGATTAGCTCC) | 0 |

| Sequence | recombinant UMI read abundance (log10) |
| --- | --- |
| TGCACCACATGGACCGGTTTTCCCGGTAATCCGTATTTGCT (site TGCACCACTAG) | 1.3 |
| TGCACGGCATGGACCGGTTTTCCCGGTAATCCGTATTTGTT (site TGCACGGCTAA) | 0.724 |
| TGCCACCCATGGACCGGTTTTCCCGGTAATCCGTATTTGTT (site AGCCACCCTAA) | 0.00473 |
| TGCCACCCATGGACCGGTTTTCCCGGTAATCCGTATTTGTT (site CGCCACCCTAA) | 0.0165 |
| TGCCACCCATGGACCGGTTTTCCCGGTAATCCGTATTTGTT (site GGCCACCCTAA) | 0.00763 |
| TGCCACCCATGGACCGGTTTTCCCGGTAATCCGTATTTGTT (site TGCCACCCTAA) | 0.0117 |
| TGCCATGCATGGACCGGTTTTCCCGGTAATCCGTATTTGCC (site TGCCATGCTGG) | 0.0153 |
| TGCCCAACATGGACCGGTTTTCCCGGTAATCCGTATTTGGT (site TGCCCAACTAC) | 0.06 |
| TGCCCTGCATGGACCGGTTTTCCCGGTAATCCGTATTTGTT (site TGCCCTGCTAA) | 0.0362 |
| TGCCTATCATGGACCGGTTTTCCCGGTAATCCGTATTTGTT (site TGCCTATCTAA) | 0.0105 |
| TGCCTCGCATGGACCGGTTTTCCCGGTAATCCGTATTTGGG (site TGCCTCGCTCC) | 0.0166 |
| TGCGAGCCATGGACCGGTTTTCCCGGTAATCCGTATTTGAA (site TGCGAGCCTTT) | 0.00414 |
| TGCGAGGCATGGACCGGTTTTCCCGGTAATCCGTATTTGTA (site TGCGAGGCTTA) | 1.41 |
| TGCGCTTCATGGACCGGTTTTCCCGGTAATCCGTATTTGGG (site TGCGCTTCTCC) | 0.0195 |
| TGCGGACCATGGACCGGTTTTCCCGGTAATCCGTATTTGCA (site TGCGGACCTTG) | 0 |
| TGCGGACCATGGACCGGTTTTCCCGGTAATCCGTATTTGCT (site TGCGGACCTAG) | 0.00621 |
| TGCGTGACATGGACCGGTTTTCCCGGTAATCCGTATTTGAT (site TGCGTGACTAT) | 1.94 |
| TGCGTGTCATGGACCGGTTTTCCCGGTAATCCGTATTTGCC (site TGCGTGTCTGG) | 2.33 |
| TGCTATACATGGACCGGTTTTCCCGGTAATCCGTATTTGAT (site TGCTATACTAT) | 0.285 |

| Sequence | recombinant UMI read abundance (log10) |
| --- | --- |
| TGCTCAGCATGGACCGGTTTTCCCGGTAATCCGTATTTGTT (site TGCTCAGCTAA) | 0 |
| TGCTCCCCATGGACCGGTTTTCCCGGTAATCCGTATTTGTA (site TGATCCCCTTA) | 0.0151 |
| TGCTCCCCATGGACCGGTTTTCCCGGTAATCCGTATTTGTA (site TGCTCCCCTTA) | 0.00702 |
| TGCTCCCCATGGACCGGTTTTCCCGGTAATCCGTATTTGTA (site TGGTCCCCTTA) | 0.00608 |
| TGCTCCCCATGGACCGGTTTTCCCGGTAATCCGTATTTGTA (site TGTTCCCCTTA) | 0.00224 |
| TGCTCCGCATGGACCGGTTTTCCCGGTAATCCGTATTTGTG (site TGCTCCGCTCA) | 0.265 |
| TGCTGCACATGGACCGGTTTTCCCGGTAATCCGTATTTGAA (site TGCTGCACTTT) | 0.0328 |
| TGCTGCTCATGGACCGGTTTTCCCGGTAATCCGTATTTGGT (site TGCTGCTCTAC) | 0.182 |
| TGCTTAGCATGGACCGGTTTTCCCGGTAATCCGTATTTGTC (site TGCTTAGCTGA) | 0 |
| TGCTTGACATGGACCGGTTTTCCCGGTAATCCGTATTTGCT (site TACTTGACTAG) | 1.51 |
| TGCTTGACATGGACCGGTTTTCCCGGTAATCCGTATTTGCT (site TCCTTGACTAG) | 0.0059 |
| TGCTTGACATGGACCGGTTTTCCCGGTAATCCGTATTTGCT (site TGCTTGACTAG) | 0.922 |
| TGCTTGACATGGACCGGTTTTCCCGGTAATCCGTATTTGCT (site TTCTTGACTAG) | 0.00367 |
| TGCTTGACATGGACCGGTTTTCCCGGTAATCCGTATTTGGA (site TGCTTGACTTC) | 0.355 |
| TGCTTGGCATGGACCGGTTTTCCCGGTAATCCGTATTTGAA (site TGCTTGGCTTT) | 0.485 |
| TGCTTGGCATGGACCGGTTTTCCCGGTAATCCGTATTTGGT (site TGCTAGGCTAC) | 0.011 |
| TGCTTGGCATGGACCGGTTTTCCCGGTAATCCGTATTTGGT (site TGCTCGGCTAC) | 0 |
| TGCTTGGCATGGACCGGTTTTCCCGGTAATCCGTATTTGGT (site TGCTGGGCTAC) | 0.155 |
| TGCTTGGCATGGACCGGTTTTCCCGGTAATCCGTATTTGGT (site TGCTTGGCTAC) | 0.0115 |

— the supplement of paper PMC11208160
